Measured values taken from patent US20080004235A1, “TOPICAL COMPOSITIONS COMPRISING ONE OR MORE OF 4-THIOURIDINE, ISOMALTITOL AND URIDINE” (priority 2005, published 2008).

How the values were obtained:
skin = assay: Preliminary safety evaluation of topical exposure (SLS or UVB provoked skin), methodological study on humans; assay type: in vivo, human
Source text: Skin irritation and dermatitis is a common problem among health care professionals due to frequent washing. We have utilized two well-established skin irritation models to investigate the effect of topically administered uridine or isomalt on skin physiology including measurement of dermal blood flow. Isomalt consists of 1,6-glucopyranosyl-D-sorbitol (GPS, isomaltitol) and 1,1-glucopyranosyl-D-mannitol (GPM) in a 1:1 ratio. The methodological study involves the study of various physiological parameters, such as dermal blood flow and visual assessment of erythema, subsequent to provocation by either exposure to UVB light or Sodium Lauryl Sulphate (SLS) and the effects of isomalt and uridine on these parameters. Only a very small area of the skin was exposed to the irritants UVB or SLS. The methodological study has been approved by the Medical Products Agency, Sweden and the Regional Ethical Review Board, Linköping, Sweden.
UVB provocation with a divergent beam produces a circular, radially fading skin erythema, the diameter of which corresponds to the minimal erythemal dose. […] SLS, which is a detergent, creates a local skin irritation mainly by disturbing the skins barrier function. A methodological study has been performed, both to evaluate the effects of uridine or isomalt on skin UVB-induced erythema and SLS irritation. […]

[1] = cited from earlier work
rats = settings: rat, in vivo; cited from earlier work

## isomalt
skin; in vivo
  untoward effects such as exacerbated skin irritation or itching related to the exposure: no untoward effects

## OC[C@H](O)[C@@H](O)[C@H](O)[C@H](O)CO[C@H]1O[C@H](CO)[C@@H](O)[C@H](O)[C@H]1O [isomaltitol, 6-O-α-D-glucopyranosyl-D-sorbitol]
[1]; compared to sugars and other carbohydrates
  rise in blood glucose and insulin levels: only a very small rise
[1]; in vivo
  absorption: very slow and limited
rats
  toxic effect: doesn't seem to have any toxic effect

## O=c1ccn([C@@H]2O[C@H](CO)[C@@H](O)[C@H]2O)c(=O)[nH]1 [uridine]
skin; saturated solution, topical exposure for 24 hours, all individuals
  untoward effects such as exacerbated skin irritation or itching related to the exposure: no untoward effects
